Data reported in ChEMBL document CHEMBL5329192, “Synthesis, biological activities, and future perspectives of steroidal monocyclic pyridines” (RSC Med Chem, 2023).

Legend:
Rattus norvegicus [1] = test: Anti-anabolic activity against albino rat assessed as mass gain of levator ani-muscle at 0.1 mg/kg, sc administered for 7 days; type: functional; conditions: time 7 day
Rattus norvegicus [2] = test: Anti-androgen activity against albino rat assessed as mass gain of prostate gland at 0.1 mg/kg, sc administered for 7 days; type: functional; conditions: time 7 day
Rattus norvegicus [3] = species on record: Rattus norvegicus; test: Ratio of anti-anabolic activity against albino rat assessed as reduction in mass of levator ani-muscle to anti-androgenic activity against albino rat assessed as mass gain of prostate gland; type: functional
[4] = Acute toxicity in ip dosed albino rat administered twice daily for 14 days; type: organism-based; conditions: in vivo, time 14 day
HeLa [5] = test: Antiproliferative activity against human HeLa cells assessed as reduction in cell viability by MTT assay; type: functional, cell-based
[6] = Antiproliferative activity against human […] cells assessed as reduction in cell viability by MTT assay; type: functional, cell-based
[7] = Selectivity index, ratio of CC50 for cytotoxicity against human HEp-2 cells to EC50 for antiviral activity against Respiratory syncytial virus infected in human HEp-2 cells; type: toxicity, cell-based; conditions: read-out: Ratio CC50/EC50
[8] = Cytotoxicity against human HEp-2 cells assessed as reduction in cell viability incubated for 48 hrs by MTT assay; type: toxicity, cell-based
[9] = system: Respiratory syncytial virus; test: Antiviral activity against Respiratory syncytial virus infected in human HEp-2 cells assessed as inhibition of virus-induced cytopathic effect measured after 6 days by CellTiter-Glo assay; type: functional, organism-based; conditions: HEp-2, 144 h
PC-3 [10] = test: Cytotoxicity against human PC-3 cells assessed as reduction in cell viability incubated for 48 hrs by SRB assay; type: toxicity, cell-based; conditions: PC-3, 48 h
[11] = Cytotoxicity against human RWPE-1 cells assessed as reduction in cell viability incubated for 48 hrs by SRB assay; type: toxicity, cell-based
MGC-803 [12] = test: Antiproliferative activity against human MGC-803 cells assessed as cell growth inhibition measured after 48 hrs by MTT assay; type: functional, cell-based; conditions: MGC-803, 48 h
EC9706 [13] = test: Antiproliferative activity against human EC9706 assessed as reduction in cell proliferation incubated for 72 hrs by MTT assay; type: functional, cell-based; conditions: EC9706, 72 h
ECa-109 cell line [14] = test: Antiproliferative activity against human EC109 cells assessed as reduction in cell proliferation incubated for 72 hrs by MTT assay; type: functional, cell-based; conditions: ECa-109, 72 h
PC-3 [15] = test: Cytotoxicity against human PC-3 cells assessed as reduction in cell viability incubated for 72 hrs by MTT assay; type: functional, cell-based; conditions: PC-3, 72 h
MCF7 [16] = test: Antiproliferative activity against human MCF7 cells assessed as reduction in cell growth incubated for 48 hrs by MTT assay; type: functional, cell-based; conditions: MCF7, 48 h
SK-OV-3 = test: Antiproliferative activity against human SK-OV-3 cells assessed as reduction in cell growth incubated for 48 hrs by MTT assay; type: functional, cell-based; conditions: SK-OV-3, 48 h
HepG2 = test: Antiproliferative activity against human HepG2 cells assessed as reduction in cell growth incubated for 48 hrs by MTT assay; type: functional, cell-based; conditions: HepG2, 48 h
MGC-803 [17] = test: Cytotoxicity against human MGC-803 cells assessed as reduction in cell viability incubated for 72 hrs by MTT assay; type: functional, cell-based; conditions: MGC-803, 72 h
A549 = test: Cytotoxicity against human A549 cells assessed as reduction in cell viability incubated for 72 hrs by MTT assay; type: functional, cell-based; conditions: A549, 72 h
HeLa [18] = test: Antiproliferative activity against human HeLa cells assessed as reduction in cell growth incubated for 48 hrs by MTT assay; type: functional, cell-based
MCF7 [19] = test: Cytotoxicity against human MCF7 cells assessed as reduction in cell viability incubated for 72 hrs by MTT assay; type: functional, cell-based; conditions: MCF7, 72 h
EC9706 [20] = test: Cytotoxicity against human EC9706 cells assessed as reduction in cell growth incubated for 48 hrs by MTT assay; type: functional, cell-based; conditions: EC9706, 48 h
ECa-109 cell line [21] = test: Cytotoxicity against human EC109 cells assessed as reduction in cell growth incubated for 48 hrs by MTT assay; type: functional, cell-based; conditions: ECa-109, 48 h
MGC-803 [22] = test: Cytotoxicity against human MGC-803 cells assessed as reduction in cell growth incubated for 48 hrs by MTT assay; type: functional, cell-based; conditions: MGC-803, 48 h

CCOC1(OCC)NC(c2ccccc2)=C2C[C@H]3[C@@H]4CC[C@H]5C[C@@H](O)CC[C@]5(C)[C@H]4CC[C@]3(C)C2=C1C#N
Activity (Rattus norvegicus [1]): 0.486 g
Activity (Rattus norvegicus [2]): 0.345 g
Ratio (Rattus norvegicus [3]): 1.41
LD50 at 336 h [4]: 4900 mg/kg

CC(=O)O[C@H]1CC[C@@]2(C)C(=CC[C@@H]3[C@@H]2CC[C@]2(C)c4cc(-c5ccc(F)cc5)ncc4C[C@@H]32)C1
IC50 (HeLa [5]): ≥ 100 µM
IC50 [6]: ≥ 100 µM

CC(=O)O[C@H]1CC[C@@]2(C)C(=CC[C@H]3[C@@H]4CC[C@H](c5cc(-c6ccccc6F)c(C#N)c(N)n5)[C@@]4(C)CC[C@@H]32)C1
selectivity ratio [7]: 23.2
CC50 at 48 h [8]: 288 µM
EC50 [9]: 12.4 µM

CCOC(=O)c1cc2c(nc1-c1ccccc1)[C@@]1(C)CC[C@H]3[C@@H](CC=C4C[C@@H](O)CC[C@@]43C)[C@@H]1C2
IC50 (PC-3 [10]): 197 µM
IC50 at 48 h [11]: 189 µM

CC(=O)O[C@H]1CC[C@@]2(C)C(=CC[C@H]3[C@@H]4CC[C@H](c5cc(-c6ccccc6Cl)c(C#N)c(N)n5)[C@@]4(C)CC[C@@H]32)C1
selectivity ratio [7]: 21.4
CC50 at 48 h [8]: 303 µM
EC50 [9]: 14.1 µM

CCOC1(OCC)NC(c2ccc(F)cc2)=C2C[C@H]3[C@@H]4CC[C@H]5C[C@@H](O)CC[C@]5(C)[C@H]4CC[C@]3(C)C2=C1C#N
Activity (Rattus norvegicus [1]): 0.622 g
Activity (Rattus norvegicus [2]): 0.432 g
Ratio (Rattus norvegicus [3]): 1.44
LD50 at 336 h [4]: 4900 mg/kg

CC(=O)O[C@H]1CC[C@@]2(C)C(=CC[C@@H]3[C@@H]2CC[C@]2(C)c4nc(C)c(C(C)=O)cc4C[C@@H]32)C1
IC50 (MGC-803 [12]): 10.3 µM
IC50 (EC9706 [13]): 30.6 µM
EC50 (ECa-109 cell line [14]): 14.3 µM

CCOC(=O)c1cc2c(nc1C(=O)OCC)[C@@]1(C)CC[C@H]3[C@@H](CC=C4C[C@@H](OC(C)=O)CC[C@@]43C)[C@@H]1C2
IC50 (PC-3 [10]): 100 µM
IC50 at 48 h [11]: 218 µM

COC(=O)c1cc2c(nc1C)[C@@]1(C)CC[C@H]3[C@@H](CC=C4C[C@@H](OC(C)=O)CC[C@@]43C)[C@@H]1C2
IC50 (MGC-803 [12]): 16.7 µM
IC50 (EC9706 [13]): 26.5 µM
EC50 (ECa-109 cell line [14]): 17.1 µM

C[C@]12CC[C@H](O)CC1=CC[C@@H]1[C@@H]2CC[C@]2(C)C(c3cccnc3)=CC[C@@H]12 [ABIRATERONE]
IC50 (PC-3 [15]): 17.2 µM
IC50 (PC-3 [10]): 91 µM
IC50 at 48 h [11]: 645 µM

C[C@]12CC[C@H](O)C[C@@H]1CC[C@@H]1[C@@H]2CC[C@]2(C)c3c(C#N)c(S)nc(-c4ccccc4)c3C[C@@H]12
Activity (Rattus norvegicus [1]): 0.577 g
Activity (Rattus norvegicus [2]): 0.421 g
Ratio (Rattus norvegicus [3]): 1.37
LD50 at 336 h [4]: 4910 mg/kg

O=c1[nH]cc(F)c(=O)[nH]1 [FLUOROURACIL]
IC50 (MCF7 [16]): 25.4 µM
IC50 (PC-3 [15]): 6.7 µM
IC50 (MGC-803 [12]): 26.4 µM
IC50 (SK-OV-3): 25 µM
IC50 (HepG2): 66.8 µM
IC50 (MGC-803 [17]): 15.7 µM
IC50 (A549): 5.7 µM
IC50 (EC9706 [13]): 2.45 µM
IC50 (HeLa [18]): 18.8 µM
EC50 (ECa-109 cell line [14]): 21.1 µM
IC50 (MCF7 [19]): 10 µM

CC(=O)O[C@H]1CC[C@@]2(C)C(=CC[C@@H]3[C@@H]2CC[C@]2(C)c4nc(N)c(C#N)cc4C[C@@H]32)C1
IC50 (EC9706 [20]): 58.4 µM
IC50 (ECa-109 cell line [21]): 20.5 µM
IC50 (MGC-803 [22]): 16.3 µM

CC(=O)O[C@H]1CC[C@@]2(C)C(=CC[C@@H]3[C@@H]2CC[C@]2(C)c4cc(-c5ccc(C)cc5)ncc4C[C@@H]32)C1
IC50 (HeLa [5]): ≥ 100 µM
IC50 [6]: ≥ 100 µM

C[C@]12CC[C@H](O)C[C@@H]1CC[C@@H]1[C@@H]2CC[C@]2(C)c3c(C#N)c(S)nc(-c4ccc(Cl)cc4)c3C[C@@H]12
Activity (Rattus norvegicus [1]): 0.48 g
Activity (Rattus norvegicus [2]): 0.345 g
Ratio (Rattus norvegicus [3]): 1.39
LD50 at 336 h [4]: 4910 mg/kg

CCCCc1cc2c(cn1)C[C@H]1[C@@H]3CC=C4C[C@@H](OC(C)=O)CC[C@]4(C)[C@H]3CC[C@]21C
IC50 (HeLa [5]): ≥ 100 µM
IC50 [6]: ≥ 100 µM

C[C@]12CC[C@H](O)C[C@@H]1CC[C@@H]1[C@@H]2CC[C@]2(C)c3c(c(-c4ccc(Cl)cc4)[nH]c(=O)c3C#N)C[C@@H]12
Activity (Rattus norvegicus [1]): 0.314 g
Activity (Rattus norvegicus [2]): 0.234 g
Ratio (Rattus norvegicus [3]): 1.34
LD50 at 336 h [4]: 4920 mg/kg

NC(=O)c1ncn([C@@H]2O[C@H](CO)[C@@H](O)[C@H]2O)n1 [RIBAVIRIN]
selectivity ratio [7]: 32.5
CC50 at 48 h [8]: 653 µM
EC50 [9]: 20.1 µM

CC(=O)O[C@H]1CC[C@@]2(C)C(=CC[C@H]3[C@@H]4CC[C@H](c5cc(-c6ccnc(Br)c6)c(C#N)c(N)n5)[C@@]4(C)CC[C@@H]32)C1
selectivity ratio [7]: 172
CC50 at 48 h [8]: 539 µM
EC50 [9]: 3.13 µM

CCOC(=O)c1cc2c(nc1C)[C@@]1(C)CC[C@H]3[C@@H](CC=C4C[C@@H](OC(C)=O)CC[C@@]43C)[C@@H]1C2
IC50 (MGC-803 [12]): 12.2 µM
IC50 (EC9706 [13]): 34.7 µM
EC50 (ECa-109 cell line [14]): 16.1 µM

CCOC(=O)c1cc2c(nc1C(=O)OCC)[C@@]1(C)CC[C@H]3[C@@H](CC=C4C[C@@H](O)CC[C@@]43C)[C@@H]1C2
IC50 (PC-3 [10]): 95.4 µM
IC50 at 48 h [11]: 501 µM

CCOC(=O)c1cc2c(nc1CCl)[C@@]1(C)CC[C@H]3[C@@H](CC=C4C[C@@H](OC(C)=O)CC[C@@]43C)[C@@H]1C2
IC50 (MGC-803 [12]): 9.84 µM
IC50 (EC9706 [13]): 37.6 µM
EC50 (ECa-109 cell line [14]): 15.5 µM

CC(=O)O[C@H]1CC[C@@]2(C)C(=CC[C@@H]3[C@@H]2CC[C@]2(C)c4cc(-c5ccccc5)ncc4C[C@@H]32)C1
IC50 (HeLa [5]): ≥ 100 µM
IC50 [6]: ≥ 100 µM

CCOC(=O)c1cc2c(nc1-c1ccccc1)[C@@]1(C)CC[C@H]3[C@@H](CC=C4C[C@@H](OC(C)=O)CC[C@@]43C)[C@@H]1C2
IC50 (PC-3 [10]): 437 µM
IC50 at 48 h [11]: 375 µM

CCOc1nc(-c2ccc(F)cc2)c2c(c1C#N)[C@@]1(C)CC[C@H]3[C@@H](CC[C@H]4C[C@@H](O)CC[C@@]43C)[C@@H]1C2
Activity (Rattus norvegicus [1]): 0.191 g
Activity (Rattus norvegicus [2]): 0.123 g
Ratio (Rattus norvegicus [3]): 1.55
LD50 at 336 h [4]: 4890 mg/kg

CCOC(=O)c1cc2c(cn1)C[C@H]1[C@@H]3CC=C4C[C@@H](OC(C)=O)CC[C@]4(C)[C@H]3CC[C@]21C
IC50 (HeLa [5]): ≥ 100 µM
IC50 [6]: ≥ 100 µM

CCCc1cc2c(cn1)C[C@H]1[C@@H]3CC=C4C[C@@H](OC(C)=O)CC[C@]4(C)[C@H]3CC[C@]21C
IC50 (HeLa [5]): ≥ 100 µM
IC50 [6]: ≥ 100 µM

C[C@]12CC[C@H]3[C@@H](CCC4=CC(=O)CC[C@@]43C)[C@@H]1CC[C@@H]2O [TESTOSTERONE]
Activity (Rattus norvegicus [1]): 0.204 g
Activity (Rattus norvegicus [2]): 0.76 g
Ratio (Rattus norvegicus [3]): 0.27
LD50 at 336 h [4]: 2750 mg/kg

CCOc1nc(-c2ccccc2)c2c(c1C#N)[C@@]1(C)CC[C@H]3[C@@H](CC[C@H]4C[C@@H](O)CC[C@@]43C)[C@@H]1C2
Activity (Rattus norvegicus [1]): 0.494 g
Activity (Rattus norvegicus [2]): 0.321 g
Ratio (Rattus norvegicus [3]): 1.54
LD50 at 336 h [4]: 4890 mg/kg

COc1cccc2c1C(=O)c1c(O)c3c(c(O)c1C2=O)C[C@@](O)(C(=O)CO)C[C@@H]3O[C@H]1C[C@H](N)[C@H](O)[C@H](C)O1 [DOXORUBICIN]
IC50 [6]: 9 µM

C[C@]12CCC(=O)C[C@@H]1CC[C@@H]1[C@@H]2CC[C@]2(C)[C@@H](O)CC[C@@H]12 [STANOLONE]
Activity (Rattus norvegicus [1]): 0.18 g
Activity (Rattus norvegicus [2]): 0.2 g
LD50 at 336 h [4]: 3410 mg/kg
